Literature values in article PMC6376154 (International Journal for Parasitology: Drugs and Drug …, 2019).
pEC50: −log10 of the molar value. Like-named read-outs stand apart in the source and are kept apart here.

Test system: P. falciparum 3D7 asexual blood stage
Details: cited from earlier work
[1] = MMV Malaria Box data sheet (supplement mmc2.xls), ref MMV data sheet
[2] = MMV Malaria Box data sheet (supplement mmc2.xls), ref MMV data sheet, read-out: EC50_nM
[3] = MMV Malaria Box sheet, ref MMV data sheets
[4] = MMV Malaria Box sheet, ref MMV data sheets, read-out: EC50_nM
[5] = source StJude, ref ChEMBL_NTD, read-out: CHEMBL EC50
[6] = ChEMBL-NTD value per source (GNF, GSK, StJude), several values in a cell follow the order of the sources, read-out: CHEMBL EC50
[7] = MMV Malaria Box data sheet, ref MMV data sheets
[8] = MMV Malaria Box data sheet, ref MMV data sheets, read-out: EC50_nM
[9] = source GNF, ref ChEMBL_NTD, read-out: CHEMBL EC50
[10] = source GSK, ref ChEMBL_NTD, read-out: CHEMBL EC50
[11] = value(s) per source (GSK, GNF, StJude), separated by semicolon, ref ChEMBL-NTD, read-out: CHEMBL EC50

Row | Structure (SMILES) | percent_inh @ 5 uM [3] | pEC50 [4] | pEC50 [5] | also measured
1 | CCN(CC)CCn1c(=N)n(CC(O)c2ccc(Cl)c(Cl)c2)c2ccccc21 (stereo not drawn) [MMV000248] | – | – | – | percent_inh @ 5 uM [1]: 97%; pEC50 [2]: 6.14
2 | CCOc1ccc(Nc2c3ccccc3nc3ccccc23)cc1 [MMV000304] | 97% | 5.97 | 5.24 | –
3 | Cc1ccc2nc(C)cc(Nc3cccc(C(F)(F)F)c3)c2c1 [MMV000326] | 98% | 5.93 | 6.06 | –
4 | CCn1c2c(c(=N)c3c1CCC3)CCCC2 [MMV000340] | – | – | – | pEC50 [6]: 5.51
5 | CC(C)(C)c1ccc2c(c1)CN(Cc1ccc(Cl)cc1)CO2 [MMV000442] | 98% | 6.44 | 6.59 | –
6 | CCOc1ccc2c(c1)CN(Cc1ccc(Cl)cc1)CO2 [MMV000443] | 97% | 6.36 | 5.83 | –
7 | CCCCCn1c(=N)n(CC(O)COc2cccc(C)c2)c2ccccc21 (stereo not drawn) [MMV000444] | 96% | – | 5.58 | –
8 | CCCCCCn1c(=N)n(CC(O)COc2cccc(C)c2)c2ccccc21 (stereo not drawn) [MMV000445] | 98% | 5.95 | 5.71 | –
9 | CN(C)CCCNc1c2ccccc2nc2ccccc12 [MMV000448] | – | – | 6.27 | percent_inh @ 5 uM [7]: 95%; pEC50 [8]: 6.63; pEC50 [9]: 7.49; pEC50 [10]: 5.98
10 | CCOc1cc2c(cc1OCC)C(c1cc(Cl)c(O)c(OCC)c1)NCC2 (stereo not drawn) [MMV000481] | 96% | 5.88 | 5.52 | –
11 | CCOc1cc2c(cc1OCC)C(c1cc(C)c(O)c(C)c1)NCC2 (stereo not drawn) [MMV000483] | 97% | 6.17 | 5.74 | –
12 | CCN(CC)c1cc(C)c2cc(NC(=O)c3cccc(OC)c3)ccc2n1 [MMV000498] | – | – | – | percent_inh @ 5 uM [1]: 97%; pEC50 [11]: 5.32
13 | CCCN(CCC)CCCNC(=O)c1cc2c(-c3ccc(OC)c(OC)c3)nn(C)c2s1 [MMV000561] | – | – | – | percent_inh @ 5 uM [1]: 98%; pEC50 [2]: 5.84; pEC50 [11]: 5.39
14 | COc1ccc(C2Sc3ccccc3N=C3C2=C(O)c2ccccc23)cc1 (stereo not drawn) [MMV000563] | – | – | – | percent_inh @ 5 uM [7]: 96%; pEC50 [8]: 6.07; pEC50 [9]: 6.62
15 | CCc1ccc(Nc2cc(C)c3ccc(O)cc3n2)cc1 [MMV000570] | – | – | 6.14 | percent_inh @ 5 uM [7]: 98%; pEC50 [8]: 6.71
16 | COc1ccc(-c2cc(=O)oc3c4c(ccc23)OCN(Cc2ccc(F)cc2)C4)cc1 [MMV000604] | 96% | 6.13 | 5.28 | –

Row | Structure (SMILES) | percent_inh @ 5 uM [3] | pEC50 [4] | pEC50 [5] | also measured
17 | COc1ccc(C(O)(CCC(C)C)C(CN2CCOCC2)c2ccc(Cl)cc2)cc1 (stereo not drawn) [MMV000617] | – | – | – | pEC50 [6]: 5.34
18 | CCCCC(O)(c1ccc(Cl)cc1)C(CN1CCOCC1)c1ccc(Cl)cc1 (stereo not drawn) [MMV000619] | 98% | 5.86 | 5.40 | –
19 | CC(O)(c1ccc(Cl)cc1)C(CN1CCCCC1)c1ccccc1 (stereo not drawn) [MMV000620] | – | – | 6.04 | percent_inh @ 5 uM [7]: 94%
20 | CCCCCCC(O)(c1ccc(F)cc1)C(CN1CCOCC1)c1ccccc1 (stereo not drawn) [MMV000621] | 93% | – | 5.50 | –
21 | CC1CCCCN1CCCNC(=O)c1ccc2c(c1)sc1nc(-c3ccc(F)cc3)cn12 (stereo not drawn) [MMV000634] | – | – | 6.20 | percent_inh @ 5 uM [7]: 98%; pEC50 [8]: 6.19
22 | COc1ccc(NC(=O)C2c3ccccc3C(=O)N(CC(C)C)C2c2cccs2)cc1Cl (stereo not drawn) [MMV000642] | – | – | 6.93 | percent_inh @ 5 uM [7]: 100%; pEC50 [8]: 7.69; pEC50 [9]: 7.04
23 | COc1ccccc1CNC(=O)C1c2ccccc2C(=O)N(CC(C)C)C1c1cccs1 (stereo not drawn) [MMV000648] | – | – | – | percent_inh @ 5 uM [1]: 97%; pEC50 [11]: 5.50
24 | CCOc1ccccc1CNC(=O)C1c2ccccc2C(=O)N(CC(C)C)C1c1cccs1 (stereo not drawn) [MMV000653] | – | – | 5.84 | percent_inh @ 5 uM [7]: 97%; pEC50 [8]: 5.88
25 | COc1ccc(NC(=O)C2c3ccccc3C(=O)N(CC(C)C)C2c2cccs2)cc1 (stereo not drawn) [MMV000662] | – | – | 6.99 | percent_inh @ 5 uM [7]: 100%; pEC50 [8]: 7.44
26 | Cc1ccc(C2CC(C(F)(F)F)n3nc(C(=O)N4CCN(C(c5ccccc5)c5ccccc5)CC4)cc3N2)cc1 (stereo not drawn) [MMV000699] | 98% | 6.34 | 6.17 | –
27 | Cc1ccnc(NC(c2cccc(OCc3ccccc3)c2)c2ccc3cccnc3c2O)c1 (stereo not drawn) [MMV000720] | 97% | 5.99 | 5.74 | pEC50 [10]: 6.06
28 | Oc1c(CN2CCN(c3ccccc3F)CC2)cc(Br)c2cccnc12 [MMV000760] | 91% | – | 5.42 | –
29 | CCCOCc1cc(CN2CCN(c3cccc(Cl)c3)CC2)c(O)c2ncccc12 [MMV000787] | – | – | – | pEC50 [6]: 5.96
30 | CC(C)OCc1cc(CN2CCN(c3cccc(Cl)c3)CC2)c(O)c2ncccc12 [MMV000788] | – | – | – | percent_inh @ 5 uM [1]: 98%; pEC50 [2]: 6.16; pEC50 [11]: 6.03
31 | OC(CNCc1ccccc1)Cn1c2ccccc2c2ccccc21 (stereo not drawn) [MMV000839] | 95% | 5.97 | 5.43 | –
